The text below walks through data of ChEMBL document CHEMBL2029336, “S-Adenosylhomocysteine hydrolase of the protozoan parasite Trichomonas vaginalis: potent inhibitory activity of 9-(2-deoxy-2-fluoro-β,D-arabinofuranosyl)adenine” (Bioorg Med Chem Lett, 2012).

The subject of data set [1] is Trichomonas vaginalis. The data set can be described thus: Growth inhibition of Trichomonas vaginalis T1 at 100 uM after 24 hrs by hemocytometry. The format is functional. To be noted: for inhibition of growth at 100 µM: T1, 24 h, read-out: GI.
The test system of data set [2] is Trichomonas vaginalis. The data set is described as follows: Growth inhibition of Trichomonas vaginalis T1 after 24 hrs by hemocytometry. The format is functional, organism-based. The settings on record: T1, 24 h.
The test system of data set [3] is Trichomonas vaginalis. The data set can be described thus: Growth inhibition of mtronidazole-resistant Trichomonas vaginalis after 24 hrs by hemocytometry. The format is functional, organism-based.
In the next data set the test system is CHO-K1. The data set can be described thus: Cytotoxicity against CHOK1 cells assessed as morphological changes at 100 uM after 48 hrs by microscopy. The format is cell-based, Cricetulus griseus. To be noted: chinese hamster, cho-k1, 48 h.

Active and inactive are the calls of the source. The rule behind the calls is not given here.

For the compound `CCCSS[C@H]1[C@H](O)[C@@H](CO)O[C@H]1n1cnc2c(N)nc(N)nc21`, the inhibition of growth at 100 µM in the data set on Trichomonas vaginalis [1] amounted to 6.2%.

Take `Nc1ncnc2c1ncn2[C@@H]1O[C@H](CO)C[C@H]1O` [CORDYCEPIN]: the inhibition of growth at 100 µM in the data set with Trichomonas vaginalis [1] is 94.1%.

Turning to `[N-]=[N+]=NC[C@H]1O[C@@H](n2cnc3c(N)ncnc32)[C@H](O)[C@@H]1O`, the inhibition of growth at 100 µM in the data set on Trichomonas vaginalis [1] was determined as 85.2%. Besides, the IC50 – broadly, the midpoint of a concentration-inhibition curve – with Trichomonas vaginalis [2] worked out at 48.5 µM.

In the case of `O=c1ccn([C@@H]2O[C@H](C=C(Br)Br)[C@@H](O)[C@H]2O)c(=O)[nH]1`, the inhibition of growth at 100 µM in the data set on Trichomonas vaginalis [1] is 12.2%.

Regarding `COc1ccc(SC[C@H]2O[C@@H](n3cnc4c(N)ncnc43)[C@H](O)[C@@H]2O)cc1`, the inhibition of growth at 100 µM with Trichomonas vaginalis [1] turned out to be 58%.

Regarding `Nc1ncnc2c1ncn2[C@@H]1O[C@H](CO)[C@@H](F)[C@H]1O`, in the data set on Trichomonas vaginalis [1], the inhibition of growth at 100 µM is 100%. Further, in the data set with Trichomonas vaginalis [2], the midpoint of inhibition, the IC50, lay at 1.61 µM.

With `Nc1ncnc2c1ncn2[C@@H]1O[C@H](CCl)[C@@H](O)[C@H]1O`, the inhibition of growth at 100 µM in the data set with Trichomonas vaginalis [1] stood at 88.9%. Also, the half-inhibitory concentration (IC50) in the data set on Trichomonas vaginalis [2] amounted to 53.3 µM.

Take `Nc1c2ncn([C@@H]3O[C@H](CO)[C@@H](O)[C@H]3O)c2nc[n+]1[O-]`: the inhibition of growth at 100 µM in the data set on Trichomonas vaginalis [1] was 37.7%.

As to `Nc1ncnc2c1ncn2[C@@H]1O[C@H](CSc2ccc(Cl)cc2)[C@@H](O)[C@H]1O`, the inhibition of growth at 100 µM in the data set on Trichomonas vaginalis [1] is 51.2%.

For the compound `O=C(Nc1ncnc2c1ncn2[C@@H]1O[C@H](CCl)[C@@H](O)[C@H]1O)c1ccccc1`, in the data set on Trichomonas vaginalis [1], the inhibition of growth at 100 µM is 40.7%.

Regarding `CCCSS[C@@H]1[C@H](O)[C@@H](CO)O[C@H]1n1cnc2c(N)ncnc21`, in the data set with Trichomonas vaginalis [1], the inhibition of growth at 100 µM was 43%.

`Nc1ncnc2c1ncn2[C@@H]1O[C@H](CO)[C@@H](O)[C@H]1F` [2'-BETA-FLUORO-2',3'-DEOXYADENOSINE]: in the data set with Trichomonas vaginalis [1], the inhibition of growth at 100 µM turned out to be 100%. This compound also gave a concentration for half-maximal inhibition (IC50) with Trichomonas vaginalis [2] of 2.94 µM.

For the compound `CCCSS[C@H]1[C@H](O)[C@@H](CO)O[C@H]1n1cnc2c(N)ncnc21`, the inhibition of growth at 100 µM in the data set with Trichomonas vaginalis [1] is 66.8%.

Turning to `Cc1ncc([N+](=O)[O-])n1CCO` [METRONIDAZOLE], in the data set with Trichomonas vaginalis [3], the half-maximal inhibitory concentration (IC50) was found to be 0.21 µM.

In the case of `N[C@@H]1[C@H](O)[C@@H](CO)O[C@H]1n1ccc(=O)[nH]c1=O`, in the data set on Trichomonas vaginalis [1], the inhibition of growth at 100 µM turned out to be 18.4%.

As for `Nc1ncnc2c1ncn2[C@@H]1O[C@H](CO)[C@@H](O)[C@@H]1F`, the inhibition of growth at 100 µM in the data set on Trichomonas vaginalis [1] was 99.6%. Further, the IC50 stood at 0.09 µM with Trichomonas vaginalis [2] and 100 µM in the data set on Trichomonas vaginalis [3]. Also, in the data set with CHO-K1, the Activity entry is “Non-toxic”.

Consider `Nc1ncnc2c1ncn2[C@@H]1O[C@H](CO)[C@H](F)[C@H]1O`, for which the inhibition of growth at 100 µM in the data set with Trichomonas vaginalis [1] was found to be 57.5%.

Take `O=c1ccn([C@@H]2O[C@H](CSc3ccccc3)[C@@H](O)[C@H]2O)c(=O)[nH]1`: the “growth inhibition (GI)” value in the data set with Trichomonas vaginalis [1] is “inactive”.

Turning to `COc1ccc(SC[C@H]2O[C@@H](n3ccc(=O)[nH]c3=O)[C@H](O)[C@@H]2O)cc1`, the “growth inhibition (GI)” value in the data set with Trichomonas vaginalis [1] was “inactive”.

Regarding `Nc1ncnc2c1ncn2[C@@H]1O[C@H](CO)[C@@H](O)[C@@H]1Cl`, the inhibition of growth at 100 µM in the data set with Trichomonas vaginalis [1] came to 100%. The same compound displayed an IC50 in the data set with Trichomonas vaginalis [2] of 5.93 µM.

On to `Nc1ncnc2c1ncn2[C@@H]1O[C@H](CO)[C@@H](O)[C@H]1O` [ADENOSINE], for which the inhibition of growth at 100 µM with Trichomonas vaginalis [1] amounted to 49.7%.

With `CC(=O)O[C@H]1[C@@H](O)[C@H](n2ccc(=O)[nH]c2=O)O[C@@H]1CO`, the inhibition of growth at 100 µM in the data set with Trichomonas vaginalis [1] came to 22.8%.

As for `Nc1ncnc2c1ncn2[C@H]1C[C@H](O)[C@@H](CO)O1` [DEOXYADENOSINE], the inhibition of growth at 100 µM with Trichomonas vaginalis [1] was found to be 48.7%.

Consider `NC[C@H]1O[C@@H](n2cnc3c(NC(=O)c4ccccc4)ncnc32)[C@H](O)[C@@H]1O`, for which the inhibition of growth at 100 µM with Trichomonas vaginalis [1] was determined as 21.7%.

In the case of `Nc1nc(N)c2ncn([C@@H]3O[C@H](CO)[C@@H](O)[C@H]3O)c2n1`, the inhibition of growth at 100 µM in the data set with Trichomonas vaginalis [1] came out at 100%. Besides, the 50% inhibitory concentration (IC50) with Trichomonas vaginalis [2] was found to be 29.5 µM.

For `O=c1[nH]cnc2c1ncn2[C@@H]1O[C@H](CO)[C@@H](O)[C@H]1O` [INOSINE], the inhibition of growth at 100 µM with Trichomonas vaginalis [1] is 19.2%.

As to `O=c1ccn([C@H]2C[C@H](O)[C@@H](CI)O2)c(=O)[nH]1`, the inhibition of growth at 100 µM in the data set with Trichomonas vaginalis [1] was found to be 21.2%.

In the case of `NC[C@H]1O[C@@H](n2cnc3c(N)ncnc32)[C@H](O)[C@@H]1O`, the inhibition of growth at 100 µM with Trichomonas vaginalis [1] is 24.1%.

On to `Nc1ncnc2c1ncn2[C@@H]1O[C@H](CO)[C@@H](O)[C@@H]1O` [VIDARABINE], for which the inhibition of growth at 100 µM with Trichomonas vaginalis [1] is 100%. Also, in the data set on Trichomonas vaginalis [2], the midpoint of inhibition, the IC50, lay at 3.6 µM.

Turning to `Nc1ncnc2c1ncn2[C@@H]1O[C@H](COC(=O)c2ccccc2)[C@@H](O)[C@H]1O`, the inhibition of growth at 100 µM with Trichomonas vaginalis [1] turned out to be 13.5%.

As to `Nc1ncnc2c1ncn2[C@@H]1O[C@H](CO)[C@H]2O[C@H]21`, the inhibition of growth at 100 µM with Trichomonas vaginalis [1] stood at 43%.

`O=c1ccn([C@@H]2O[C@H](CCl)[C@@H](O)[C@H]2O)c(=O)[nH]1`: in the data set with Trichomonas vaginalis [1], the “growth inhibition (GI)” value was “inactive”.

Take `CC(C)CSC[C@H]1O[C@@H](n2cnc3c(N)ncnc32)[C@H](O)[C@@H]1O`: the inhibition of growth at 100 µM in the data set on Trichomonas vaginalis [1] worked out at 44.9%.
